# Assay results published in ChEMBL document CHEMBL1151978, “Epiquinamide: a poison that wasn't from a frog that was” (J Nat Prod, 2009).
# Calls of active or inactive are those of the source. The calls are words filed in the database; no cut-off is given here.
# How the values were obtained:
# [1] = target: T1, Neuronal acetylcholine receptor; alpha4/beta2 (Rattus norvegicus) (UniProt P09483+P12390); experiment: Displacement of [3H]epibatidine from alpha4beta2 nicotinic acetylcholine receptor in rat cerebral cortical membrane up to 100 uM; assay type: cell membranes
# [2] = target: T2, Neuronal acetylcholine receptor; alpha3/beta4 (Rattus norvegicus) (UniProt P04757+P12392); experiment: Inhibition of rat alpha3beta4 nicotinic acetylcholine receptor activation expressed in HEK293 cells assessed as intracellular calcium level up to 100 uM by fluorescence assay; assay type: cell-based
# [3] = target: T2, Neuronal acetylcholine receptor; alpha3/beta4 (Rattus norvegicus); experiment: Inhibition of rat alpha3beta4 nicotinic acetylcholine receptor activation expressed in HEK293 cells assessed as intracellular calcium level at 500 uM by fluorescence assay; assay type: cell-based
# [4] = target: T1, Neuronal acetylcholine receptor; alpha4/beta2 (Rattus norvegicus); experiment: Displacement of [3H]epibatidine from alpha4beta2 nicotinic acetylcholine receptor in rat cerebral cortical membrane at 100 uM; assay type: cell membranes
Compound,Activity [1],Activity [2],Activity [3],Activity [4]
O=C(O)[C@@H]1CCCN2CCCC[C@H]12,inactive,inactive,–,–
O=[N+]([O-])[C@H]1CCCN2CCCC[C@H]12,–,–,inactive,inactive
